Measured values from US10537559B2, “Isonitramine compound and composition containing same for preventing or treating metabolic diseases” (INJE UNIVERSITY INDUSTRY-ACADEMIC COOPERATION FOUNDATION, priority 2015, dated 2020).

Assays:
yeast α-glucosidase = target: T1, yeast α-glucosidase (Saccharomyces cerevisiae, UniProt P53341); assay: Inhibitory effect on yeast α-glucosidase (pNPG substrate); type: biochemical; conditions: FIG. 4; 100 μM, pH 5.6, pNPG substrate
T1 construct: purchased Sigma
Description: (§1) A glucose assay kit was purchased for use from Youngdong Company (Seoul, Korea). In addition, from Sigma Company, porcine α-amylase, yeast α-glucosidase, 3,5-dinitrosalicylic acid (DNS), p-nitrophenol glucoside (pNPG), rat intestinal acetone powder, sucrose, and maltose were purchased. Soluble starch was obtained from Samchun Chemical Company (Seoul, Korea), and Acarbose was purchased from Tokyo chemical industry Company (Tokyo, Japan).
(§2) 5 μl of […] (0.1 U/mL) was diluted with 50 mM sodium acetate buffer (pH 5.6), and the diluted solution was mixed with each of 100 μM (+)-isonitramine (1) or Compound 2 to 6 of Example 1. In addition, as a positive control group, Acarbose was mixed at the same concentration with (+)-isonitramine (1).
The mixtures were pre-cultured at a temperature of 37° C. for 10 minutes, and 25 μl of pNPG was added thereto, followed by being cultured at a temperature of 60° C. for 10 minutes. Then, 1N NaOH was added thereto to stop the reaction.
Afterwards, the resulting solution in which a color reaction was induced was transferred to a 96-well plate, and absorbance thereof was measured at a wavelength of 405 nm by using a 96-well microplate reader.

[1] = system: 3T3-L1 mouse preadipocytes; assay: Analysis of triglyceride concentration in differentiated adipocytes; type: cell-based; conditions: FIG. 2B; adipocytes differentiated 8 days with 100 μM or 500 μM
Description: (§3) 3T3-L1 mouse preadipocytes were cultured in a Dulbecco's modified Eagle's medium (DMEM) supplemented with 10% newborn calf serum (Gibco BRL, NY, USA) and antibiotics (100 U/ml penicillin and 100 μg/ml streptomycin, Gibco BRL, NY, USA) in an incubator under humidification conditions of a temperature of 37 r and 5% CO2.
(§4) Afterwards, the cultured 3T3-L1 mouse cells were treated with 0.5 mM 1-methyl-3-isobutylxanthine purchased from Sigma (St. Louis, Mo.), 1 μM dexamethasone, 1 μg/mL insulin, and 10% fetal bovine serum (FBS, Gibco BRL), and then, cultured for 2 days to induce differentiation. After 2 days, the cultured medium was replaced with a fresh DMEM supplemented with 10% FBS and 1 μg/mL insulin. For the next 4 days, the cultured medium was replaced with a fresh DMEM supplemented with 10% FBS every day.
The concentration of triglyceride in the cells was measured by using a triglyceride reagent purchased from Sigma and a free glycerol reagent.
The adipocytes were differentiated for 8 days with (+)-isonitramine 1 at a concentration of 100 μM or 500 μM, in a 6-well plate.
To analyze the concentration of triglyceride in the cells, the cells were washed with PBS, and then, lysed with 100 μl of a lysis buffer. […]
Following the completion of the culturing, the absorbance of the cells was measured by using a spectrophotometer at a wavelength of 540 nm.

aP2 = assay: RT-PCR mRNA expression in adipocytes: aP2; type: cell-based, mouse; conditions: FIG. 3, β-actin internal control
Description: (§7) According to the manufacturer's instructions, total cell RNA of the undifferentiated adipocytes and differentiated adipocytes was extracted by using Trizol (available from Invitrogen).
(§8) The RNA (4 μg) was reverse-transcribed into cDNA by using M-MLV reverse transcriptase (available from Promega). Accordingly, the expression of peroxisome proliferator-activated receptor γ (PPARγ), CCAAT/enhancer binding protein-α (C/EBPα), adipocyte protein 2 (aP2), lipoprotein lipase (LPL), and adiponectin was each confirmed.
(§9) The variable number of cycles was used to identify the amplification occurred in the linear phase.
(§10) In the PCR amplification, β-actin was used as an internal control group. The PCR products were separated by using 2.0% agarose gel, followed by being visualized by RedSafe nucleic acid staining (available from Intron, Korea) and UV irradiation.

porcine α-amylase = target: T2, porcine α-amylase (Sus scrofa, UniProt P00690); assay: Inhibitory effect on porcine α-amylase; type: biochemical; conditions: FIG. 4; 100 μM, pH 6.8, starch substrate
T2 construct: purchased Sigma
T2 sequence (P00690 16-511): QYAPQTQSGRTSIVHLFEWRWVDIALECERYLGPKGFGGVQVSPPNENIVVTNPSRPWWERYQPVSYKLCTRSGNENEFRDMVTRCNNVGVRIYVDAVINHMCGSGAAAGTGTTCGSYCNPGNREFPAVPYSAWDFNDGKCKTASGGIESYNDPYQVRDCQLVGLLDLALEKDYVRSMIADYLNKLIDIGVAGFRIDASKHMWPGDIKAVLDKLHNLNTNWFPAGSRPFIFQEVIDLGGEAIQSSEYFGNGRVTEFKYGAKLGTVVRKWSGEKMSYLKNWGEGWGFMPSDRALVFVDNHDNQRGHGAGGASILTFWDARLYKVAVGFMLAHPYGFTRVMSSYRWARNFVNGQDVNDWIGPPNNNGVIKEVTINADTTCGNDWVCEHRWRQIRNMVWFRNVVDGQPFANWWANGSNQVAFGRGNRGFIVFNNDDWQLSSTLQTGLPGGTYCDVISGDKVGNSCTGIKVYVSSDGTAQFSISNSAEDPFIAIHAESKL
Description: as §1
as §2, with “phosphate” for “sodium acetate”, “6.8),” for “5.6),”, “(1). […]” for “(1).”
25 μl of DNS was added to the cooled reaction solutions, and a color reaction was induced at a temperature of 100° C. for 5 minutes. […] The solutions in which the color reaction was induced were transferred to a 96-well plate, and absorbance thereof was measured at a wavelength of 540 nm by using a 96-well microplate reader.
Here, the inhibitory effect was calculated according to Equation 1: Enzymatic inhibitory activity=(1−Ax/A0)×100% [Equation 1] • Ax indicates an absorbance value of […] upon treatment of isonitramine

PPARγ = assay: RT-PCR mRNA expression in adipocytes: PPARγ; type: cell-based, mouse; conditions: FIG. 3, β-actin internal control
Description: as §7, §8, §9, §10

zebrafish = assay: Postprandial hyperglycemia in diabetic-inducible (streptozocin) zebrafish; type: in vivo; conditions: FIG. 6; STZ-injected zebrafish fed flake mixed with compound at various concentrations for 1 hour
Description: The zebrafish was anesthetized by placing it in water at a temperature of 8° C. for 20 seconds.
For intraperitoneal injection, 350 mg/kg of a solution of 0.9% streptozocin (available from Sigma, St. Louis, Mo.) in 0.09% NaCl solution was injected with a syringe having 25 gauge needle (available from Trajan Scientific, Australia). Here, to a control group of zebrafish, the same amount of PBS was injected intraperitoneally. After the completion of the injection, the test and control groups of zebrafish were bread at a temperature of 24° C.
The zerafish was subjected to intraperitoneal injection of STZ or PBS three times (350 mg/kg) for a week. After the final injection, the zerafish was fed with commercial flake food (available from Tetrabits tropical flakes, Tetra, Germany) for 5 days.
After fasting for 24 hours, the zebrafish to which PBS was injected was fed with commercial flask food, and the zebrafish to which STZ was injected was fed with flake mixed with (+)-isonitramine (1) at various concentrations, for 1 hour. Afterwards, plasma blood of each zebrafish was enzymatically measured by using a glucose trinder kit.

zebrafish larvae = assay: Zebrafish toxicity (FIG. 5); type: in vivo; conditions: zebrafish model
HIT-T15 cells = assay: Insulin secretion of HIT-T15 cells (insulin ELISA); type: cell-based; conditions: FIG. 7
Description: To identify effects of isonitramine derivatives on insulin secretion, a type of insulin cells, e.g., HIT-T15 cells, were obtained by the Korean Cell Line Back, and then, subcultured. In detail, the HIT-T15 cells were cultured in a RPMI1640 medium (available from invitrogen. Co, USA) supplemented with 10% fetal bovine serum (FBS, available from invitrogen. Co, New Zealand 10091-148), 100 mu/ml of penicillin, and 100 μg/ml of streptomycin, under humidification conditions of a temperature of 37° C. and 5% CO2.
Insulin secretion influenced by (+)-isonitramine was measured according to the recommended method using insulin ELISA kit (Cat.10-1113-01, available from Mercodia Company). First, the HIT-T15 cells were loaded to a 96-well plate at a concentration of 5×10^4 cells/well, and cultured until reaching 70% to 80% cell confluency in an incubator at a temperature of 37° C. in a CO2 incubator. Then, the cells were pre-treated with 500 μM alloxan, which induces a pancreatic-specific toxic response, for 30 minutes. Afterwards, (+)-isonitramine was added to each well, and cultured for 24 hours. The culture solution was collected therefrom, and subjected to a centrifugation at a speed of about 15,000 rpm for 3 minutes. […] The changes resulted from the termination of the reaction were measured by using an ELISA-reader (VERSA max, micro-reader, MDS. Co, USA) at a wavelength of 450 nm.

adiponectin = assay: RT-PCR mRNA expression in adipocytes: adiponectin; type: cell-based, mouse; conditions: FIG. 3, β-actin internal control
Description: as §7, §8, §9, §10

[2] = system: phosphoenolpyruvate carboxykinase (PEPCK); assay: PEPCK expression in zebrafish embryo (RT-PCR); type: in vivo; conditions: FIG. 9, with 100 mM cAMP and 100 mM dexamethasone, 48 hours
Description: (§5) In the experiment performed to verify the effect on the amount of insulin secretion, the zebrafish embryo underwent 96 hour post-fertilization (hpf) was exuviated, and then, treated with isonitramine for 48 hours. In the experiment performed to verify the effect on gluconeogenesis, 100 mM cyclic AMP (cAMP) and 100 mM dexamethasone (DEX) were simultaneously treated with isonitramine, and then, cultured for 48 hours.
(§6) From the cultured embryo above, TRIzol (available from Invitrogen) was used to isolate mRNA, and the isolated RNA was synthesized to cDNA by using iScript cDNA Synthesis Kit (available from Bio-Rad). Afterwards, to amplify the cDNA, primers listed in Table 2 were used, wherein each primer was purchased from Bioneer.

LPL = assay: RT-PCR mRNA expression in adipocytes: LPL; type: cell-based, mouse; conditions: FIG. 3, β-actin internal control
Description: as §7, §8, §9, §10

[3] = system: 3T3-L1 mouse preadipocytes; assay: Adipocyte differentiation of 3T3-L1 preadipocytes (Nile red staining); type: cell-based; conditions: FIG. 2A
Description: as §3, §4
The undifferentiated or differentiated cells were washed three times with phosphate-buffered saline (PBS), and then, fixed with 4% […] (PFA) at room temperature for 1 hour. Afterwards, the resulting cells were washed three times with PBS, and stained with 0.5 μg/ml of nile red (available from Sigma, St. Louis, Mo.) for 10 minutes. Following the completion of the staining, the resulting cells were washed with PBS, and the nuclei thereof were stained again with 4′-6-diamidino-2-phenylindole, (DAPI, available from Invitrogen). […]

C/EBPα = conditions: FIG. 3; RT-PCR, β-actin internal control
Description: as §7, §8, §9, §10

[4] = system: 3T3-L1 mouse preadipocytes; assay: Cytotoxicity in adipocyte differentiation experiment; type: cell-based; conditions: FIG. 3; adipocytes
[5] = system: metabolic enzymes essential for carbohydrate absorption; assay: Selectivity of inhibition of carbohydrate metabolism enzymes (FIG. 4); type: biochemical; conditions: 100 μM, as compared with Compound 4 to 6
Description: The mixtures were pre-cultured at a temperature of 37° C. for 10 minutes, and 25 μl of 0.5% starch solution was added thereto, followed by being cultured at a temperature of 37° C. for 10 minutes. Then, the mixtures were cultured again at a temperature of 100° C. for 5 minutes to stop the reaction, and the mixtures were cooled.
25 μl of DNS was added to the cooled reaction solutions, and a color reaction was induced at a temperature of 100° C. for 5 minutes. The resulting solutions were cooled again. The solutions in which the color reaction was induced were transferred to a 96-well plate, and absorbance thereof was measured at a wavelength of 540 nm by using a 96-well microplate reader.
Here, the inhibitory effect was calculated according to Equation 1: Enzymatic inhibitory activity=(1−Ax/A0)×100% [Equation 1] • Ax indicates an absorbance value of a control group • A0 indicates an absorbance value of a test group upon treatment of isonitramine

zf preproinsulin (insa) = assay: Insulin expression in zebrafish embryo (RT-PCR); type: in vivo; conditions: FIG. 8; zebrafish embryo 96 hpf treated 48 hours
Description: as §5, §6

T1 sequence (P53341 whole entry): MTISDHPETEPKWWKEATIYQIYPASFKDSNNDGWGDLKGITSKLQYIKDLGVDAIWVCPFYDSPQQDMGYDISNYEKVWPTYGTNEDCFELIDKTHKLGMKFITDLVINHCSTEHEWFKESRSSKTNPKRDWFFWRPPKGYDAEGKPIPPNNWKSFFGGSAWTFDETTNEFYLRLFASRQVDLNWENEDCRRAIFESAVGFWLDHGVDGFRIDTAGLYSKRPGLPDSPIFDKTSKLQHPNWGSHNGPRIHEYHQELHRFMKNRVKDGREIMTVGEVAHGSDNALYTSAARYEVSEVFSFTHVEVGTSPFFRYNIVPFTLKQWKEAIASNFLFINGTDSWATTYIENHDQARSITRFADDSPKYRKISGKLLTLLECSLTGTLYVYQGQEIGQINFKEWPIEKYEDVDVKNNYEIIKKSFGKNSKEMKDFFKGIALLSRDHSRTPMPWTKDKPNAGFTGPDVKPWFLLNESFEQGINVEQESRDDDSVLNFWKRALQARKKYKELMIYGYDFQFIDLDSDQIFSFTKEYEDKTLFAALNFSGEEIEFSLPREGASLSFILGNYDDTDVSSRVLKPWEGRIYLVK

O[C@@H]1CCCC[C@]12CCCNC2 [(+)-isonitramine (1), (+)-isonitramine]
inhibition of α-glucosidase (yeast α-glucosidase): inhibiting | concentration of triglyceride [1]: decreased the concentration of triglyceride in a concentration-dependent manner | mRNA expression of aP2 (aP2): weakened | inhibition of α-amylase (porcine α-amylase): hardly inhibited | mRNA expression of PPARγ (PPARγ): inhibited | blood glucose (zebrafish): reduction of blood glucose in a concentration-dependent manner | cardiovascular toxicity (zebrafish larvae): no | developmental toxicity (zebrafish larvae): no | insulin secretion (HIT-T15 cells; HIT-T15 cells pre-treated with 500 μM alloxan 30 minutes, then compound 24 hours): increasing the insulin secretion in a concentration-dependent manner | mRNA expression of adiponectin (adiponectin): weakened | inhibitory effect on the expression of PEPCK [2]: significantly increased in proportion to the concentration | mRNA expression of LPL (LPL): weakened | differentiation of 3T3-L1 mouse preadipocytes into mature adipocytes [3]: inhibited the differentiation | mRNA expression of C/EBPα (C/EBPα): inhibited | cytotoxicity [4]: without cytotoxicity | selective inhibitory effects on metabolic enzymes essential for carbohydrate absorption [5]: selective inhibitory effects | expression of insulin (zf preproinsulin (insa)): increased

O=C1NC(=O)C(=O)C(=O)N1 [alloxan, reference compound]
insulin secretion (HIT-T15 cells; HIT-T15 cells treated with 500 μM alloxan, normal state 33.39±1.12 ng/mL (n=4)): 18.92 ± 0.43 ng/mL
